Source: US20260169011A1, “METHODS AND COMPOSITIONS FOR PROVIDING CUSTOMIZED NUTRITIONAL SUPPLEMENTS” (Vibrant Holdings LLC, priority 2023, published 2026)
Read-outs that look alike come from different tables or passages of the source.

Experiments:
[1] = NutriPro test: serum, RBC and WBC nutrient values before and after ATB / customized blend; format: in vivo, human
From the text: The method for providing a nutritional supplement for a subject as disclosed herein is based on a comprehensive panel that assesses intracellular and extracellular levels of at least or up to 41 nutrients. […] Blood analysis using the method disclosed herein tests for nutrient levels in serum, red blood cells (RBCs), and white blood cells (WBCs). Additional genetic testing can assess patients' predispositions toward nutrient deficiencies. Based on the blood and genetic analysis results, a subsequent supplementation diet comprising supplements and food sources can be designed and implemented. The subject can be a human subject.
(§1) In some embodiments, the detection method is mass spectrometry.
The ‘NutriPro’ test is used to assess serum (extracellular), RBC, and WBC (intracellular) nutrient values along with genetic testing for any predispositions with could be affecting nutrient values in the body. If required, additional tests such as the gut zoomer, cardiovascular health, thyroid test, kidney function test, liver function test, etc, are carried out. FIG. 1 provides a schematic diagram of the process of the NutriPro test from the individual subject to the creation of customized nutritional blends.
The ATB is given to the individual for nutritional supplementation, and blood testing for nutrients in serum, RBC, and WBC is carried out after 3 or 6 months.
The assessed change is called the VAF.
After testing, the individual takes the ATB or the customized blend for the amount of time indicated.

[2] = Vibrant Absorption Factor (VAF): difference of post- and pre-supplementation nutrient values divided by ATB dosage
From the text: (§2) Improvement in nutrition can be determined by comparing the nutrient values in serum, RBC, and WBCs post-nutritional supplementation to the nutrient values in serum, RBC, and WBCs pre-nutritional supplementation. Based on the improvement, the change in the nutrient levels can be attributed to the per milligram dosage of the supplemented nutrients. The assessed nutritional change is the “Vibrant Absorption factor (VAF (see Equation (1) below). The VAF can be used to determine the subject's utilization of the supplemented nutrients, as determined by the difference in extracellular and intracellular nutrient values before and after supplementation. Based on the subject's utility or absorption of the nutrients, the dosage amount of the nutrient needed to be supplemented or increased to effect change of the subject's nutrient values into the optimum nutrient zone can be assessed. In various embodiments, the VAF is determined by administering a pre-determined formulation, referred to herein as the Absorption Testing Blend.
(§3) Next, the ATB is administered to the individual for a predefined period at step 320a, after which nutrient levels and the genetic nutrient profile are re-evaluated, to obtain the post-supplementation biomarker values at step 330.
(§4) This includes determining the VAF based on the difference between post- and pre-supplementation biomarker values, which is divided by the ATB dosage.
(§5) The assessed change is called the VAF. The VAF is used to understand how the individual's body is utilizing these nutrients, depending on the difference in extracellular and intracellular nutrient values before and after supplementation. Based on the body's utility or absorption of the nutrients, the amount of nutrients needed to be supplemented to alter the individual's nutrient values into the optimum nutrient zone is understood. The VAF calculations help in determining the appropriate dosages of nutrients required in the ‘customized blend.’

[3] = Intracellular (RBC / WBC, cellular) nutrient levels by mass spectrometry; format: in vivo, human; settings: Level: Cells, person; for Follow-up Nutrient Level: after customized blend; for Actual Nutrient Value (ANV): before customized blend
From the text: as §1

[4] = Extracellular (serum) nutrient levels by mass spectrometry (LC-MS, GC-MS, ICP-MS); settings: for Follow-up Nutrient Level / Actual Nutrient Value (ANV): Level: Serum, person; for Follow-up Nutrient Level: after customized blend; for Actual Nutrient Value (ANV): before customized blend
From the text: (§6) In some embodiments, the detection method assesses nutrients both in extracellular plasma and intracellular in RBC and WBC. In some embodiments, the detection method is mass spectroscopy-based. The extracellular and intracellular nutrient levels provide a comprehensive analysis of a subject's nutrient status, reflecting not only the intake levels but also the absorption levels into the cells.
(§7) In some aspects, the extracellular nutrient levels provide a snapshot of the status of nutrient baseline levels at a given time. It is a reflection of a person's diet over a narrow period of time. In contrast, the intracellular levels of nutrients provide information on the absorbed levels of nutrients, thus accounting for factors such as aging, lifestyle, chronic illness, medication, etc. that could interfere with absorption and can change the functional nutritional levels.
(§8) In some embodiments, the detection method is mass spectrometry. In some embodiments, the detection method is Liquid chromatography-mass spectrometry (LC-MS), Gas chromatography-mass spectrometry (GC-MS), or Inductively coupled plasma-mass-spectrometry (ICP-MS). In some embodiments, the detection method is Liquid chromatography-mass spectrometry (LC-MS). In some embodiments, the detection method is Gas chromatography-mass spectrometry (GC-MS). In some embodiments, the detection method is Inductively coupled plasma-mass-spectrometry (ICP-MS).
(§9) In some embodiments, the method provided herein evaluates nutrient levels, both in extracellular serum and inside (intracellular) red blood cells (RBC) and/or white blood cells (WBC). The extracellular nutrient levels provide a snapshot of the status of nutrient baseline levels at a given time. These extracellular nutrient levels are a reflection of a person's diet over a narrow period of time. In contrast, RBCs have a normal lifespan of 120 days, and thus intracellular assessments for nutrients in RBCs can provide information on nutrients over longer periods. Additionally, the intracellular levels of nutrients provide information on the absorbed levels of nutrients, thus accounting for factors such as, but not limited to, aging, lifestyle, chronic illness, and medication, that can interfere with absorption and can change the functional nutritional levels. Moreover, actual nutrient utilization occurs inside the cell owing to cellular metabolic processes. At times, nutrients could be present in serum, but poor cellular uptake may result in cells being devoid of these nutrients, thus giving rise to nutrient deficiencies owing to affected cellular activities. […] As a result, it is important to assess nutrients intracellularly in addition to extracellularly. Thus, the intracellular assessment provides information on cellular uptake and utilization of nutrients at the most fundamental level, enabling understanding of the root cause of nutrient deficiencies.
(§10) The subject individual fills out the health questionnaire (PHQ) which helps establishes factors such as symptoms, complications, comorbidities, and ongoing medications. The subject's blood is drawn and the extracellular serum and intracellular blood cells are tested for nutritional deficiencies via mass spectroscopy (e.g., Liquid chromatography-mass spectrometry (LC-MS), Gas chromatography-mass spectrometry (GC-MS), or Inductively coupled plasma-mass-spectrometry (ICP-MS)).

[5] = cited from earlier work
[6] = Zone Approach: nutrient zone (Zone 1-5), target nutrient zone and follow-up zone; format: in vivo, human; settings: Zone Approach, CB followed for three months; for change of nutrient level at follow-up testing / nutrient zone at follow-up testing: Example 5: person
From the text: The second exemplary approach includes determining nutrient zones, and thus is referred to as the “Zone Approach.” According to some embodiments, the nutrient reference range for individuals can be divided into a number of zones, each indicating a nutrient wellness level. […] In some embodiments, for a given nutrient, each zone is associated with a specific multiplication factor, which can be used to determine the appropriate dosage for the CB. A few exemplary methods following this Zone Approach are further described hereinafter. […] Based on the assessment results, the current zone for each nutrient is determined at step 420a. In some embodiments, the genetic predispositions and cellular levels may influence the determination of the overall zone for a nutrient. […] This adjustment accounts for the impact of genetic polymorphisms and suboptimal cellular levels, each reducing the nutrient's zone by one or more zones. Therefore, this approach takes one or more of cellular and serum nutrient levels, along with their nutrient genetic profile into consideration to determine a given nutrient's overall zone. In the next, the Target Nutrient Zone (TNZ) to which the individual's each nutrient level is to be optimized is determined at step 430. […] In some embodiments, the determined TNZ is used to determine the multiplication factor used to adjust the starting dosage at step 440a, resulting in the CB dosage for each nutrient. In various embodiments, the multiplication factor is a fixed constant value, previously determined for a nutrient when moving from a first zone to a second zone. […] At step 450a, the CB with the determined nutrient dosages is administered to the individual for a predefined period. In some embodiments, a follow-up test is periodically conducted at step 460, to monitor the progress towards the target nutrient levels during the predefined period, for example, to check whether a target zone is reached or not for a given nutrient. In some embodiments, based on the results from the follow-up tests, it is further determined whether the dosage of the CB for a nutrient requires adjustment. If the adjustment is necessary, appropriate modification is made to the CB, for example, by increasing the TNZ to increase the nutrient levels. The modified CB is administered to the individual, and a reassessment is conducted again. In some embodiments, the personalized dosage of the nutritional supplement in the CB is modified as above after the at least one, two, three, four, five, six, seven, eight, nine, ten, or more repeats.

clinical = settings: female, human, in vivo
From the text: as §6, §7, §8, §9, §10

[7] = human, in vivo
From the text: as §2, §3, §4, §5

[8] = in vivo
From the text: as §6, §7, §8, §9, §10

[9] = person one, cells, after customized blend
[10] = person one, serum, after customized blend
[11] = person two, cells, after customized blend
[12] = person three, serum, after customized blend
[13] = person three, serum, before customized blend
[14] = person two, serum, after customized blend

CC/C=C\C/C=C\C/C=C\C/C=C\C/C=C\CCCC(=O)O [EPA]
Post-test biomarker level ([1]; person one, cells, after ATB, unit not given): 0.87 | Follow-up Biomarker level ([1]; person one, cells, after customized blend, unit not given): 2.1 | Pre-test biomarker level ([1]; person one, cells, before ATB, unit not given): 0.1 | VAF ([2]; person one, cells): 0.154 | Follow-up Nutrient Level ([3]; unit not given): 0.05 | Actual Nutrient Value (ANV) ([3]; unit not given): 0.05

C=C1CC[C@H](O)C/C1=C/C=C1\CCC[C@]2(C)[C@@H]([C@H](C)CCCC(C)C)CC[C@@H]12 [Vitamin D3]
Post-test biomarker level ([1]; person one, cells, after ATB): 18.9 pg/MM WBC | Follow-up Biomarker level [1, 9]: 212 pg/MM WBC | Pre-test biomarker level ([1]; person one, cells, before ATB): 12.2 pg/MM WBC | Post-test biomarker level ([1]; person one, serum, after ATB): 2.3 ng/mL | Follow-up Biomarker level [1, 10]: 8.7 ng/mL | Pre-test biomarker level ([1]; person one, serum, before ATB): 0.5 ng/mL | Post-test biomarker level ([1]; person two, cells, after ATB): 18.9 pg/MM WBC | Follow-up Biomarker level [1, 11]: 221 pg/MM WBC | Pre-test biomarker level ([1]; person two, cells, before ATB): 12.2 pg/MM WBC | Follow-up Nutrient Level [4]: 7.2e-05 mg/dL | Actual Nutrient Value (ANV) [4]: 0.1 ng/mL | VAF ([2]; person one, cells): 0.067 | VAF ([2]; person one, serum): 0.018 | VAF ([2]; person two, cells): 0.067

[Fe] [Iron]
Follow-up Nutrient Level ([1]; person three, cells, after customized blend): 1.141e+06 ng/mL | Actual Nutrient Value (ANV) ([1]; person three, cells, before customized blend): 620000 ng/mL | Follow-up Nutrient Level [1, 12]: 1410 ng/mL | Actual Nutrient Value (ANV) [1, 13]: 220 ng/mL | Follow-up Nutrient Level [4]: 0.019 mg/dL | Actual Nutrient Value (ANV) [4]: 140 ng/mL | UTL ([5]; Table 20, person three): 45 mg/day | Follow-up Nutrient Level [3]: 76.5 mg/dL | Actual Nutrient Value (ANV) [3]: 76.5 mg/dL

CC(C)(CO)[C@@H](O)C(=O)NCCC(=O)O [Vitamin B5]
Post-test biomarker level ([1]; person two, serum, after ATB): 23.5 ng/mL | Follow-up Biomarker level [1, 14]: 311 ng/mL | Pre-test biomarker level ([1]; person two, serum, before ATB): 14.4 ng/mL | Follow-up Nutrient Level [4]: 0.00144 mg/dL | Actual Nutrient Value (ANV) [4]: 5.4 ng/mL | VAF ([2]; person two, serum): 18.2

[Cu] [Copper]
Post-test biomarker level ([1]; person one, serum, after ATB): 900 ng/mL | Follow-up Biomarker level [1, 10]: 1690 ng/mL | Pre-test biomarker level ([1]; person one, serum, before ATB): 200 ng/mL | Follow-up Nutrient Level [4]: 0.05 mg/dL | Actual Nutrient Value (ANV) [4]: 100 ng/mL | VAF ([2]; person one, serum): 8.75 | UTL ([5]; Table 18, person one): 10 mg/day

CCCCC/C=C\C/C=C\CCCCCCCC(=O)O [LA, linoleic acid]
nutrient levels reaching their TNZ at follow-up testing ([6]; Example 4: person three bodybuilder, named nutrients are the exceptions that did not reach the TNZ): supposed to reach the higher Zone 5

NC(=O)CC[C@H](N)C(=O)O [L-glutamine, L-Glutamine]
Follow-up Biomarker level ([1]; male, human, in vivo): 697 nmol/mL | Post-test biomarker level ([1]; male, human, in vivo): 312 nmol/mL | Pre-test biomarker level ([1]; person one, serum, before ATB): 295.3 nmol/mL | Follow-up Nutrient Level [1, 12]: 677 nmol/mL | Actual Nutrient Value (ANV) [1, 13]: 290 nmol/mL | Actual Nutrient Value (ANV) [4]: 302 nmol/mL | VAF ([2]; person one, serum): 3.34 | UTL ([5]; Table 18, person one): 14000 mg/day | UTL ([5]; Table 20, person three): 14000 mg/day | UTL ([5]; upper tolerable limit): 14000 mg/day | change of nutrient level at follow-up testing [6]: marginal increase | nutrient zone at follow-up testing [6]: Zone 2 | concentration at 3 months (clinical): 371 µM

[Se] [Selenium]
Follow-up Biomarker level ([1]; female, human, in vivo): 267 ng/mL | Post-test biomarker level ([1]; female, human, in vivo): 122 ng/mL | Pre-test biomarker level ([1]; female, human, in vivo): 105 ng/mL | Actual Nutrient Value (ANV) ([1]; male, human, in vivo): 190 ng/mL | Follow-up Biomarker level ([1]; male, human, in vivo): 259 ng/mL | Follow-up Nutrient Level ([1]; male, human, in vivo): 267 ng/mL | Post-test biomarker level ([1]; male, human, in vivo): 167 ng/mL | Pre-test biomarker level ([1]; male, human, in vivo): 140 ng/mL | VAF ([7]; female): 2.267 | VAF ([7]; male): 3.6

O=C1O[C@H]([C@@H](O)CO)C(O)=C1O [Vitamin C]
Post-test biomarker level ([1]; person one, cells, after ATB): 1.1 pg/MM WBC | Follow-up Biomarker level [1, 9]: 9.2 pg/MM WBC | Pre-test biomarker level ([1]; person one, cells, before ATB): 0.05 pg/MM WBC | Post-test biomarker level ([1]; person two, cells, after ATB): 1.1 pg/MM WBC | Follow-up Biomarker level [1, 11]: 8.3 pg/MM WBC | Pre-test biomarker level ([1]; person two, cells, before ATB): 0.1 pg/MM WBC | Follow-up Nutrient Level [4]: 0.23 mg/dL | Actual Nutrient Value (ANV) [4]: 1000 ng/mL | VAF ([2]; person one, cells): 0.07 | VAF ([2]; person two, cells): 0.06667

Vitamin E
Post-test biomarker level ([1]; person one, serum, after ATB): 18200 ng/mL | Follow-up Biomarker level [1, 10]: 36500 ng/mL | Pre-test biomarker level ([1]; person one, serum, before ATB): 5500 ng/mL | Post-test biomarker level ([1]; person two, serum, after ATB): 17800 ng/mL | Follow-up Biomarker level [1, 14]: 35400 ng/mL | Pre-test biomarker level ([1]; person two, serum, before ATB): 3200 ng/mL | Follow-up Nutrient Level [4]: 0.54 mg/dL | Actual Nutrient Value (ANV) [4]: 4200 ng/mL | VAF ([2]; person one, serum): 4.233 | VAF ([2]; person two, serum): 4.867

Cc1ncc(COP(=O)(O)O)c(C=O)c1O [vitamin B6, Pyridoxal 5-Phosphate]
Actual Nutrient Value (ANV) ([1]; in vivo): 130 ng/mL | Follow-up Nutrient Level ([1]; in vivo): 401 ng/mL | change of nutrient level at follow-up testing [6]: moderately increased | nutrient zone at follow-up testing [6]: Zone 2 | Actual Nutrient Value (ANV) [8]: 0.5 ng/mL | Follow-up Nutrient Level [8]: 0.9 ng/mL

[Ca] [Calcium]
Post-test biomarker level ([1]; person one, serum, after ATB): 73000 ng/mL | Follow-up Biomarker level [1, 10]: 104000 ng/mL | Pre-test biomarker level ([1]; person one, serum, before ATB): 65000 ng/mL | Post-test biomarker level ([1]; person two, serum, after ATB): 59000 ng/mL | Follow-up Biomarker level [1, 14]: 104200 ng/mL | Pre-test biomarker level ([1]; person two, serum, before ATB): 54000 ng/mL | Follow-up Nutrient Level [4]: 6.2 mg/dL | Actual Nutrient Value (ANV) [4]: 31000 ng/mL | VAF ([2]; person one, serum): 0.8 | VAF ([2]; person two, serum): 0.5 | UTL ([5]; Table 18, person one): 2,500 mg/day | UTL ([5]; Table 19, person two): 2,500 mg/day | UTL ([5]; upper tolerable limit): 2,500 mg/day | Follow-up Nutrient Level [3]: 4.2 ng/MM WBC | Actual Nutrient Value (ANV) [3]: 4.2 ng/MM WBC

CC/C=C\C/C=C\C/C=C\C/C=C\C/C=C\C/C=C\CCC(=O)O [DHA]
Post-test biomarker level ([1]; person two, cells, after ATB, unit not given): 1.9 | Follow-up Biomarker level ([1]; person two, cells, after customized blend, unit not given): 9.4 | Pre-test biomarker level ([1]; person two, cells, before ATB, unit not given): 1.2 | VAF ([2]; person two, cells): 0.14 | Follow-up Nutrient Level ([3]; unit not given): 0.9 | Actual Nutrient Value (ANV) ([3]; unit not given): 0.9

N[C@@H](CO)C(=O)O [L-Serine]
Follow-up Nutrient Level [4]: 51 nmol/mL | Actual Nutrient Value (ANV) [4]: 44 nmol/mL | UTL ([5]; upper tolerable limit): 12000 mg/day

Nc1nc2ncc(CNc3ccc(C(=O)N[C@@H](CCC(=O)O)C(=O)O)cc3)nc2c(=O)[nH]1 [Folate]
Follow-up Biomarker level ([1]; female, human, in vivo): 14.5 ng/mL | Post-test biomarker level ([1]; female, human, in vivo): 3.3 ng/mL | Post-test biomarker level ([1]; person one, serum, after ATB): 2.8 ng/mL | Follow-up Biomarker level [1, 10]: 14.3 ng/mL | Pre-test biomarker level ([1]; person one, serum, before ATB): 1.2 ng/mL | Pre-test biomarker level ([1]; person two, serum, before ATB): 0.9 ng/mL | Actual Nutrient Value (ANV) [4]: 0.8 ng/mL | concentration at 3 months ([4]; female, human, serum): 1.2 ng/mL | VAF ([2]; person one, serum): 0.032 | VAF ([2]; person two, serum): 0.048
